pIC50: −log10 of the molar value. Where two headings read alike, the source gives them in different places.
Assays:
[1] = target: T1, calcium release by IP3 (IP3 receptor) (Mus musculus, UniProt P11881); assay: Inhibitory activity against calcium release by IP3 (cerebellum microsomes, fura2); assay type: biochemical
T1 construct: from tissue; host or cells: mouse cerebellum microsomes
Description: Furthermore, the supernatant was centrifuged (105,000 g, for 60 minutes). […] Then IP3 was added thereto, and the released calcium was measured by the measurement of the fluorescence of 500 nm obtained at 2-wavelength excitation of 340 nm and 380 nm, and the fluorescence ratio F=340/380.
(§1) 2-aminoethyl diphenylborinate was used as a comparative compound.

[2] = tested on: capacitative calcium entry in cell strain deficient of IP3 receptors produced from DT40; assay: Inhibitory activity against capacitative calcium entry (fura-2 fluorescence ratio); assay type: cell-based, chickens; conditions: Gallus gallus
Description: Fura-2 acetoxymethylester was introduced to the cell strain deficient of IP3 receptors produced from the cultivated cell strain DT40 from chickens. The intracellular calcium concentration was measured by the measurement of the fluorescence of 510 nm obtained at 2-wavelength excitation of 340 nm and 380 nm, and its fluorescence ratio F=340/380.
Intracellular calcium store was depleted by activating tapsigalguine (inhibitor of the endoplasmic reticulum calcium pump) without the presence of the calcium ion in the extracellular fluid.
as §1

[3] = mouse cerebellum microsomes, calcium released with 30 nM of IP3 defined as 100%, read-out: IC50
[4] = increase rate of intracellular calcium concentration on adding 2 mM calcium chloride after store depletion with tapsigalguine, IP3 receptor-deficient DT40 cells, read-out: IC50

T1 sequence (P11881 whole entry): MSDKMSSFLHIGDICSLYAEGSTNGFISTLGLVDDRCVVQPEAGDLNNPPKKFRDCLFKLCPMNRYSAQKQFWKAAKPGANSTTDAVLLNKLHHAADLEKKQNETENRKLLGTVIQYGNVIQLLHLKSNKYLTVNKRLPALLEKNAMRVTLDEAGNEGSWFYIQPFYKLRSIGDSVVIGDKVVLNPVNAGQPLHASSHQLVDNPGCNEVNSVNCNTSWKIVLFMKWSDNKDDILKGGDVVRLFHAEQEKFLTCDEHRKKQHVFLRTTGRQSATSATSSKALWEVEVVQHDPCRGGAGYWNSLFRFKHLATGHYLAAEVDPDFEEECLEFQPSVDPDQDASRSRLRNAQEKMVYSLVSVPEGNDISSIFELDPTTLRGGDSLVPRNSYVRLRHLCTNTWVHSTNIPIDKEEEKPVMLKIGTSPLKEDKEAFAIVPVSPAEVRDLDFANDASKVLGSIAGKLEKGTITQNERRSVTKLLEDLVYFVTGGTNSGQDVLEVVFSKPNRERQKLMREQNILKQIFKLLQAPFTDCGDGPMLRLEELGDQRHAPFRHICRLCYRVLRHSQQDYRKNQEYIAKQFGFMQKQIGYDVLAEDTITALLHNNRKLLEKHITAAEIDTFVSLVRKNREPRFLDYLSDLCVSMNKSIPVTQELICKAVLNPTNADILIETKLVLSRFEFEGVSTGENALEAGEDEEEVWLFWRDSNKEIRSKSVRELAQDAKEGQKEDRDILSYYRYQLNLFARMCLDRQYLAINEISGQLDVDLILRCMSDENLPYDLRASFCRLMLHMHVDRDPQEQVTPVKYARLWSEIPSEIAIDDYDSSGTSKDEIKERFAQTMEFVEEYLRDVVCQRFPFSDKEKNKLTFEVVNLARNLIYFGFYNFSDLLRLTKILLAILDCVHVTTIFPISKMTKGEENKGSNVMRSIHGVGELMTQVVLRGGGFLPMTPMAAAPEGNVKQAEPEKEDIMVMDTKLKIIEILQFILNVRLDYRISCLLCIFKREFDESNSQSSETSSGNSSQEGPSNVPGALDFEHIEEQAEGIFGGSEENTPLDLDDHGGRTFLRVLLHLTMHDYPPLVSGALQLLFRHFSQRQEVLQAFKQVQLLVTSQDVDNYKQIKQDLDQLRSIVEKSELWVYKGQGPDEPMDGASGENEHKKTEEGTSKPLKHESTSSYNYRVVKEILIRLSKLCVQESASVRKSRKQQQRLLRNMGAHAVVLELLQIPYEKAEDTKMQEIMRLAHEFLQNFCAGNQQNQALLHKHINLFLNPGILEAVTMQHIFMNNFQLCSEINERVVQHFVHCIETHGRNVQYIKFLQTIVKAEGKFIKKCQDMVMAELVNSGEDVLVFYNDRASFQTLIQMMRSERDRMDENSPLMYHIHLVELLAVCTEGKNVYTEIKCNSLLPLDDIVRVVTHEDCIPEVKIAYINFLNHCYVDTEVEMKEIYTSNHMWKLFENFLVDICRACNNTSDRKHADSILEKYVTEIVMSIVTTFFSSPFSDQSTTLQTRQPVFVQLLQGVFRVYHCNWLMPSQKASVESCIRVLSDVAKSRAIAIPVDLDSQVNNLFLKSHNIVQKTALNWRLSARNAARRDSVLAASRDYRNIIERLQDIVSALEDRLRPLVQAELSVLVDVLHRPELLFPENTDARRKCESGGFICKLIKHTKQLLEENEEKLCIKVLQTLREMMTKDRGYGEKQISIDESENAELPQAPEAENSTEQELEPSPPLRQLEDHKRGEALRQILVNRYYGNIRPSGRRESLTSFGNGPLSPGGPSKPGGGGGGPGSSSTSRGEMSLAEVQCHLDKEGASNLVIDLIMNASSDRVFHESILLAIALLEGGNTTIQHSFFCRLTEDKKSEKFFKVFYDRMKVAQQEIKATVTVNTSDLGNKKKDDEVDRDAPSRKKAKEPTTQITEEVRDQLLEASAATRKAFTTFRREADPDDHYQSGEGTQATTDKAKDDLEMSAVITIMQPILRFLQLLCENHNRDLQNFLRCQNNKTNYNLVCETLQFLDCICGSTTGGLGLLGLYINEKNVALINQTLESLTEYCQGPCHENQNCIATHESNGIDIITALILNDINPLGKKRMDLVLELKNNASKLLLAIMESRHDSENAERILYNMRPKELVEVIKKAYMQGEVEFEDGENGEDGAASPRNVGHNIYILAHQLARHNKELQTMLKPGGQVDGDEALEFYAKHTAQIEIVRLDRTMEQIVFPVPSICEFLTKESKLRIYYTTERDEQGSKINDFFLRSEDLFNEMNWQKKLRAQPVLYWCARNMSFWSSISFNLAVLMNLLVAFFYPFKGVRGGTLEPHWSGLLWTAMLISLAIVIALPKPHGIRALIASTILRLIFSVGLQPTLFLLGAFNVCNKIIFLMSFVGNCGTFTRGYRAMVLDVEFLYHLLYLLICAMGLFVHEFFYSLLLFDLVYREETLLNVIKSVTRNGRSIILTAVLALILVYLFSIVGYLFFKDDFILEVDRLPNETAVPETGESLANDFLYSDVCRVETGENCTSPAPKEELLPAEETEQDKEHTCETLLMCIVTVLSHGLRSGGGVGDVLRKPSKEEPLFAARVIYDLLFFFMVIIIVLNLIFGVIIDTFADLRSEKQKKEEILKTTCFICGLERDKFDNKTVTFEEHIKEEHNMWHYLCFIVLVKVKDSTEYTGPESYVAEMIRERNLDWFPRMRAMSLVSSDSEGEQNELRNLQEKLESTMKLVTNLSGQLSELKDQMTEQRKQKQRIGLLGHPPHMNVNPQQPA

| SMILES | pIC50 [1, 3] | pIC50 [2, 4] | further results |
| --- | --- | --- | --- |
| OB(c1ccc(Cl)cc1)c1ccc(COCc2ccccc2)cc1 [(3), (4-chlorophenyl)(4-benzyloxymethylphenyl)borate] | 5.52 | – | – |
| NCCOB(C1CCCC1)C1CCCC1 [(25), 2-aminoethyl dicyclopentylborate] | – | 6.18 | – |
| Cc1ccc(B(OCCN)c2ccc(C)c(Cl)c2)cc1Cl [(30), 2-aminoethyl bis(3-chloro-4-methylphenyl)borate] | 5.59 | – | – |
| CCOC(=O)N1CCC(NCC(OB(c2ccc(C)c(Cl)c2)c2ccc(C)c(Cl)c2)c2ccccc2)CC1 (stereo not shown) [(47), 1-phenyl-2-(1-(ethoxycarbonyl)-piperidine-4-ylamino)ethyl bis(3-chloro-4-methylphenyl)borate] | 5.42 | – | – |
| Cc1ccc(B(OC(CN(C)C)CN(C)C)c2ccc(C)c(Cl)c2)cc1Cl [(60), 1-(dimethylaminomethyl)-2-dimethylaminoethyl bis(3-chloro-4-methylphenyl)borate] | – | 6.46 | – |
| Cc1ccc(B(OC(c2ccc(C(F)(F)F)cc2)c2ccccn2)c2ccc(C)c(Cl)c2)cc1Cl (stereo not shown) [(62), 1-(4-trifluoromethylphenyl)-1-(2-pyridyl)methyl bis(3-chloro-4-methylphenyl)borate] | – | 6.89 | – |
| CC(C)(C)c1ccc(B(OCCN)c2ccc(Cl)cc2)cc1 [(84), 2-aminoethyl (4-chlorophenyl)(4-(1,1′-dimethylethyl)phenyl)borate] | 5.35 | – | – |
| NCCOB(c1ccccc1)c1ccccc1 [Comparative Compound, 2-aminoethyl diphenylborinate, reference compound] | – | – | pIC50 ([2]; DT40): 5.30; pIC50 [1]: 4.70 |
| Cc1ccc(B(OC(C)c2ccccn2)c2ccc(C)c(Cl)c2)cc1Cl (stereo not shown) [Compound (53), 1-(2-pyridyl)ethyl bis(3-chloro-4-methylphenyl)borate] | 5.44 | 6.20 | – |
| NCCOB(c1ccccc1)c1ccc(COCc2ccc(B(OCCN)c3ccccc3)cc2)cc1 [Compound (90), bis[4-[(2-aminoethoxy)phenylboryl]benzyl]ether] | 5.22 | 7.23 | – |

Reference: patent US7217701B2, “Intracellular calcium concentration increase inhibitors” (Katsuhiko Mikoshiba, priority 2001, dated 2007)
